In patent US20260217767A1, “NOVEL A4B7 THIOETHER PEPTIDE DIMER ANTAGONISTS” (Protagonist Therapeutics, Inc., priority 2014, published 2026):
*1 amine or outer side, *2 acyl side, *3 side chain or, on linkers, in order; H or OH if unused. Where a SMILES comes first, the peptide text is derived from it. Bridges are numbered along the chain shown (N, C = ends). Roman numbers before positions name the chains, in order. [ ]: non-standard residue; d: D form. 2Nal = N[C@@H](Cc1ccc2ccccc2c1)C(=O)O; Diglycolyl = O=C(COCC(=O)[*:2])[*:1]; NMeR = CN[C@@H](CCCNC(=N)N)C(=O)O; Tic = O=C(O)[C@@H]1Cc2ccccc2CN1; X1 = O=C(c1ccccc1C[*:2])[*:1]; Pen = CC(C)(S)[C@H](N)C(=O)O

Key:
[1] = target: T1, RPMI 8866 cells (Homo sapiens, UniProt P13612+P26010); test: α4β7-MAdCAM Cell Adhesion Assay; type: cell-based; conditions: thioether peptide dimers, Table 7; read-out: Cell-Adhesion A4B7
T1 sequence (P13612 34-1032): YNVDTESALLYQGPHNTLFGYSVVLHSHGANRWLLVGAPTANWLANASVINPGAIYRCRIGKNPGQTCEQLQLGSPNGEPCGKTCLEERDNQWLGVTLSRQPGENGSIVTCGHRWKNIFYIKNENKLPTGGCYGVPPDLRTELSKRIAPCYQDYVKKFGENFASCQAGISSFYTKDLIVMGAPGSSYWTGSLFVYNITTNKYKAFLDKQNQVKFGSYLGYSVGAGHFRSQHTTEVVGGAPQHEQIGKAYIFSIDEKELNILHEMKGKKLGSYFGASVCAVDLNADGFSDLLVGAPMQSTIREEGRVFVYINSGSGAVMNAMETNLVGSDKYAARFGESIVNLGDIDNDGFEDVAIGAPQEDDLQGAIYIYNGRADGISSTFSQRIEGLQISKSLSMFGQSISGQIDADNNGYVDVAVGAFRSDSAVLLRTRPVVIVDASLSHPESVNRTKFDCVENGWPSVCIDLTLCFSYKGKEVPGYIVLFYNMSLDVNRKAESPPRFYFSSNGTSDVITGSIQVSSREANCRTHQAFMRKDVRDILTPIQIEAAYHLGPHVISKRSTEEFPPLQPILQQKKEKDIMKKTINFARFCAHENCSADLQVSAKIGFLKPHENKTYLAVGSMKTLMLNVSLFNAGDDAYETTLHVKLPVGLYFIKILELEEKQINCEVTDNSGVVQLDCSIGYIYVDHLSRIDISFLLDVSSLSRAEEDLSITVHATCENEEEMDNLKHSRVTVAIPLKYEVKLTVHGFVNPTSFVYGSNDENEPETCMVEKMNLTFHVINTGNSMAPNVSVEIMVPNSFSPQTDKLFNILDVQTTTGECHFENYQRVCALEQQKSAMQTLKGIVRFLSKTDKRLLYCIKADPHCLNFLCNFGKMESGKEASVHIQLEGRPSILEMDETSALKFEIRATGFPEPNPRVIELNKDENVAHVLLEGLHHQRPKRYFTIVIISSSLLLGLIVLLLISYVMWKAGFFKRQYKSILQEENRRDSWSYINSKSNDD
T1 sequence (P26010 20-798): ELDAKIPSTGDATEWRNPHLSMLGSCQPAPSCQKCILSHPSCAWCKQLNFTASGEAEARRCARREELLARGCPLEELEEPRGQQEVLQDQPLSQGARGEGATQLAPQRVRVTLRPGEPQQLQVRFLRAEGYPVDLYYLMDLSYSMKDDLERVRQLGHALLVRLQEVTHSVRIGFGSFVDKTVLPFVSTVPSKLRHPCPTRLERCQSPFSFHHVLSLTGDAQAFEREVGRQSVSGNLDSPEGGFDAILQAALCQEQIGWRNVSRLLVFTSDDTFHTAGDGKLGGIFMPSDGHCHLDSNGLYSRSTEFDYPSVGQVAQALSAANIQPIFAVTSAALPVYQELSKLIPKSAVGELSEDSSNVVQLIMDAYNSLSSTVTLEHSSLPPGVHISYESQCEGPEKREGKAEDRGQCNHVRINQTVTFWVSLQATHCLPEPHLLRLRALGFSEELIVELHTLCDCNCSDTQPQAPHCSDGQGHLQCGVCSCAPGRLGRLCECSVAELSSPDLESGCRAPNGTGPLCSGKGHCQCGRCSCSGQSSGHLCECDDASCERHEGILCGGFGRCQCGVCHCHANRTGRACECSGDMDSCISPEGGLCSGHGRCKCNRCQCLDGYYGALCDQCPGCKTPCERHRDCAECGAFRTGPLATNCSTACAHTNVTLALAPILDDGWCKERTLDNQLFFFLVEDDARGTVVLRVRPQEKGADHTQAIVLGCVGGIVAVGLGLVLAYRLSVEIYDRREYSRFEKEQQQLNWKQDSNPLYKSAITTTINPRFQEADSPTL
In short: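 RPMI 8866 cells (200,000/well) in DMEM with 1 mM MnCl2 and 0.1% BSA were allowed to adhere 30-45 min at 37° C to plates coated with rh MAdCAM-1/Fc (200 ng/well) in presence of serially diluted peptide. After washing, bound cells quantified by MTT, absorbance 570 nm, cell-free background subtracted.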

[2] = Simulated Intestinal Fluid (SIF) Stability Assay; type: in vitro ADME; conditions: pig, 37° C., dimers, Table 7; for half-life at 22 μM: simulated intestinal fluid (SIF) with 1% porcine pancreatin, pH 6.5, porcine pancreatin
Method: Simulated Intestinal Fluid (SIF) Stability Assay
Studies were carried out in simulated intestinal fluid (SIF) to evaluate intestinal stability of the peptide molecules of the instant invention. To prepare the SIF reagent, blank FASSIF was prepared by dissolving 0.348 g NaOH, 3.954 g sodium phosphate monobasic monohydrate and 6.186 g NaCl in a final volume of 1 liter water (final pH=6.5). To this solution, 24 g porcine pancreatin (Sigma catalog P7545) was added and stirred for 30 minutes (final pancreatin concentration is 2.4%). The solution was filtered through a cheese cloth and a No. 1 Whatman filter, and 10 ml aliquots were stored at −70° C. To run the reaction, a 10 ml aliquot was thawed at 37° C., and 125 μl aliquots were removed and mixed with an equal volume of blank FASSIF. The peptide stock solution (10 mM in 100% DMSO) was diluted 75-fold in blank FASSIF. A 50 μl aliquot of the diluted peptide was combined with 125 μl pancreatin (2.4%) and 125 μl blank FASSIF to yield final concentrations of 1% pancreatin and 22 μM peptide. The reactions were incubated at 37° C., and at various time points 50 μl aliquots were removed and added to 200 μl of quench solution containing 50% acetonitrile, 50% methanol, 5% formic acid, and 1 μg/ml internal standard. The quenched samples were centrifuged at 10,000 rpm for 10 minutes, and the supernatants were analyzed by LCMS/MS. The percent remaining at each time point was calculated based on the peak area response ratio of test to compound to internal standard. Half-lives were calculated by fitting to a first-order exponential decay equation using GraphPad. A small sampling of the results of these studies is provided and discussed herein and in the accompanying figures.

SMILES	IC50 [1]	half-life at 22 μM [2]	half-life ([2]; porcine pancreatin)
CC(C)C[C@@H]1NC(=O)[C@H]([C@@H](C)O)NC(=O)[C@H](CC(=O)O)NC(=O)[C@H](CO)NC(=O)[C@H](CCCNC(=N)N)N(C)C(=O)c2ccccc2CSC(C)(C)[C@@H](C(=O)N[C@H](Cc2ccccc2)C(=O)N[C@@H](Cc2ccc3ccccc3c2)C(=O)N[C@H](CCCCNC(=O)COCC(=O)NCCCC[C@@H](NC(=O)[C@H](Cc2ccc3ccccc3c2)NC(=O)[C@@H](Cc2ccccc2)NC(=O)[C@H]2NC(=O)[C@H](CC(C)C)NC(=O)[C@H]([C@@H](C)O)NC(=O)[C@H](CC(=O)O)NC(=O)[C@H](CO)NC(=O)[C@H](CCCNC(=N)N)N(C)C(=O)c3ccccc3CSC2(C)C)C(N)=O)C(N)=O)NC1=O [compound 162] (I: [NMeR]SDTL[Pen][dF][2Nal][dK]-NH2 / II: [NMeR]SDTL[Pen][dF][2Nal][dK]-NH2; linker I:9-II:9 via Diglycolyl; linker I:N-I:6, II:N-II:6 via X1)	100 to 1000 nM	> 3 h	
COC(=O)CC[C@H](NC(=O)[C@@H]1Cc2ccccc2CN1C(=O)[C@@H]1CSCc2ccccc2C(=O)N(C)[C@@H](CCCNC(=N)N)C(=O)N[C@@H](CO)C(=O)N[C@@H](CC(=O)O)C(=O)N[C@@H]([C@@H](C)O)C(=O)N[C@@H](CC(C)C)C(=O)N1)C(=O)N[C@H](CCCCN)C(N)=O [compound 211] (HELM PEPTIDE1{[meR].S.D.T.L.C.[Tic].E.[dK].[am]}|CHEM1{[CO[*:1]]}|CHEM2{[O=C(c1ccccc1C[*:2])[*:1]]}$PEPTIDE1,CHEM1,8:R3-1:R1|PEPTIDE1,CHEM2,1:R1-1:R1|PEPTIDE1,CHEM2,6:R3-1:R2$$$V2.0)	< 25 nM	0.117 h	
CC(C)C[C@@H]1NC(=O)[C@H]([C@@H](C)O)NC(=O)[C@H](CC(=O)O)NC(=O)[C@H](CO)NC(=O)[C@H](CCCNC(=N)N)N(C)C(=O)c2ccccc2CSC[C@@H](C(=O)N2Cc3ccccc3C[C@H]2C(=O)N[C@H](CCCCN)C(N)=O)NC1=O [compound 216] (HELM PEPTIDE1{[meR].S.D.T.L.C.[Tic].[dK].[am]}|CHEM1{[O=C(c1ccccc1C[*:2])[*:1]]}$PEPTIDE1,CHEM1,1:R1-1:R1|PEPTIDE1,CHEM1,6:R3-1:R2$$$V2.0)	< 25 nM	> 3 h	
COC(=O)CC[C@H](NC(=O)[C@@H]1Cc2ccccc2CN1C(=O)[C@@H]1CSCc2ccccc2C(=O)N(C)[C@@H](CCCNC(=N)N)C(=O)N[C@@H](CO)C(=O)N[C@@H](CC(=O)O)C(=O)N[C@@H]([C@@H](C)O)C(=O)N[C@@H](CC(C)C)C(=O)N1)C(=O)N[C@H](CCCCNC(=O)COCC(=O)NCCCC[C@@H](NC(=O)[C@H](CCC(=O)OC)NC(=O)[C@@H]1Cc2ccccc2CN1C(=O)[C@@H]1CSCc2ccccc2C(=O)N(C)[C@@H](CCCNC(=N)N)C(=O)N[C@@H](CO)C(=O)N[C@@H](CC(=O)O)C(=O)N[C@@H]([C@@H](C)O)C(=O)N[C@@H](CC(C)C)C(=O)N1)C(=O)O)C(=O)O [compound 220] (I: [NMeR]SDTLC[Tic]E(OMe)[dK]-OH / II: [NMeR]SDTLC[Tic]E(OMe)[dK]-OH; linker I:9-II:9 via Diglycolyl; linker I:N-I:6, II:N-II:6 via X1)	< 25 nM		> 3 h
